Experiment: Ex vivo everted gut sac model
Format: in vitro ADME, rat
Description: Ex vivo everted gut sac model was performed according to a modified method (10, 11). For the preparation of everted gut sac, small intestines were rapidly isolated from rats right after their sacrificing followed by being washed several times with 0.9% saline. Duodenum was segmented of the intestine (˜4 cm) in oxygenated medium [Krebs-Henseleit solution (pH 7.4, 1.25 mM NaHCO3, pH 7.4, 5.9 mM NaCl, 23.5 μM KCl, 60 μM MgSO4, 62.5 μM CaCl2, 60 μM KH2PO4, 550 μM glucose)], gently everted, washed, slid onto a glass rod and fastened with braided silk. Duodenum was clamped at one end and filled with an aliquot of 1 mL fresh oxygenated medium, and subsequently sealed with a second clamp, resulting an everted gut sac with approximately 3 cm in length using braided silk sutures.
The everted gut sacs (n=3 per group) were dialyzed in oxygenated medium supplemented with CBS (200 μM), CBS (200 μM)+1NAC (200 μM), CBS (200 μM)+3NAC (600 μM), CBS (200 μM)+10NAC (2 mM), respectively, at 37° C. Aliquots of 50 μL samples were withdrawn from the gut sacs at different time intervals (15, 30, 45, 60 min) and equal volume of oxygenated medium was supplemented in gut sacs immediately. The length and width of each intestinal segment was measured after the final sample was taken. Bismuth content transported into the gut sacs was measured by ICP-MS as mentioned above.

With Colloidal Bismuth Subcitrate [De-Nol] the “cumulative bismuth permeated within 60 min” value (CBS 200 μM with 1 mol eq. NAC) was 30.21 ng/cm2, the “cumulative bismuth permeated within 60 min” value (CBS 200 μM with 3 mol eq. NAC) was 64.98 ng/cm2 and the “cumulative bismuth permeated within 60 min” value (CBS 200 μM with 10 mol eq. NAC) was 98.61 ng/cm2. The “cumulative bismuth permeated within 60 min” value (CBS 200 μM, without NAC) was 14.68 ng/cm2.

— US20230218663A1, “COMPOSITIONS AND METHODS FOR TREATING A SARS-COV-2 INFECTION” (priority 2020, published 2023)
